Structures can show the parent of a compound that is named as a salt.
Tested on: proteasome
Experiment: Cellular proteasome inhibition test: accumulation of 4Ub-Luc reporter (luciferase activity) in DLD-1 4Ub-Luc cell line
Assay type: cell-based, human
Conditions: DLD-1 4Ub-Luc cells, 8 hours, epoxomicin = 100%
Procedure: Biological tests were carried out according to protocols described in the following articles: Ausseil F. et al. J. Biomol Screen. 2007, 12, 106-116 and Vandenberghe I. et al. Biochemical Pharmacology 2008, 76, 453-462.
In order to select novel proteasome inhibitor compounds, it is necessary to indirectly measure the activity of this proteasome within cells. To this end, we constructed a stable cell line, DLD-1 4Ub-Luc, arising from a human colon cancer cell line, which produces a chimeric reporter protein called 4Ub-Luc. This protein is a fusion between a 4-ubiquitin (4Ub) label and luciferase (Luc). This label is capable to direct every proteins that carry it toward the proteasome. The 4Ub-Luc protein is thus efficiently degraded by the proteasome, in contrast to the “wild” non-fused Luc protein. When the DLD-1 4Ub-Luc cell line is treated with a proteasome inhibitor, the fusion protein is much less efficiently degraded and accumulates in the cell. This accumulation is detected by an increase in luciferase activity in the treated extract compared to the extract from untreated cells. The control consists of verifying that the inhibitor has no effect on accumulation of the wild Luc protein produced by the stable DLD-1 RF cell line. For both cell lines and for each product an induction factor is determined for the product tested (or the reference) corresponding to the ratio between the luciferase activities measured in cells treated with this product (or the reference) and cells treated with solvent alone.
The product's activity is then defined by its relative induction factor, i.e., the ratio of its induction factor (IF % luminescence) to that of the reference molecule epoxomicin (IF=100%; see data presented in the table below).
Thus, the test established by Pierre-Fabre is a cellular test that has the advantage, compared to a purely enzymatic test, of detecting only products capable of penetrating the cell.
Two cell lines are used for this test: DLD-1 RF and DLD-1 4Ub-Luc. The culture medium used is as follows: • MEM • 5% fetal calf serum • 5 ml of penicillin-streptomycin • 2.5 ml of FUNGIZONE® (Amphotericin B) • 10 ml of […]
Day 1: Inoculate white 96-well culture-treated plates (PerkinElmer White ViewPlate, product no. 6005181) with 100 μl of 1·10^5 c/ml cell suspension per well. Incubate for 24 hours so that the cells adhere. On each plate five columns will be inoculated with DLD-1 4Ub-Luc and five others with DLD-1 RF according to diagram 1 below.
Day 2: Remove the medium by turning the plates upside down on cotton, and then carry out the treatment with the compounds of the invention, with solvent alone or with a reference compound such as epoxomicin. […]
The columns are paired (examples 2 and 8, 3 and 9, 4 and 10 and 5 and 11) and treated with the same compound. Columns 6 and 7 receive the experimental control, namely 0.1% DMSO in culture medium for wells B, C, D, and E of columns 6 and 7, and the positive control (10^−7 M epoxomicin) in wells F and G.
After incubation, turn the plate upside down on cotton to empty the wells, rinse with 50 μl of PBS to remove any trace of the cytotoxin tested and then add 50 μl of 5× passive lysis buffer (Promega, product no. E1941) diluted to ⅕ in water. Shake energetically using a plate shaker for 5 to 10 minutes at room temperature before freezing at −20° C.
Luciferase activity is measured using a Luciferase Assay System 10-Pack kit (Promega, product no. E1501).
On the day luciferase activity is to be measured, defrost the plates and wait until they have returned to room temperature. The optimal temperature for luciferase activity is 20-25° C.
Reconstitute the firefly luciferase substrate by defrosting the buffer and then adding 10 ml of buffer to the bottle containing the freeze-dried substrate. Wait until the solution is at room temperature before beginning the assay. […]

[1] = concentration tested 5 · 10^−6 M
[2] = concentration tested 5 · 10^−7 M

Structure (SMILES)	relative induction factor (IF % luminescence) versus epoxomicin [1]	relative induction factor (IF % luminescence) versus epoxomicin (concentration tested 10^−5 M)	relative induction factor (IF % luminescence) versus epoxomicin (concentration tested 10^−6 M)	relative induction factor (IF % luminescence) versus epoxomicin [2]	relative induction factor (IF % luminescence) versus epoxomicin (concentration tested 5 · 10^−6 M, hydrochloride)	relative induction factor (IF % luminescence) versus epoxomicin (concentration tested 10^−5 M, hydrochloride)	relative induction factor (IF % luminescence) versus epoxomicin (concentration tested 10^−6 M, hydrochloride)
C=C(C(=O)[C@H](OC(=O)CCC(=O)O)[C@@H](C)[C@H]1[C@@H](OC(C)=O)C[C@@]2(C)C3CCC4[C@H](C)C(=O)C=C[C@@]45C[C@@]35CC[C@]12C)[C@@H](C)COC(C)=O (stereo partly drawn) [Compound 74, 22-deacetyl-22-succinate-26-acetyl-neoboutomellerone N-methylglucamine salt]	14%	2%	60%				
C=C(C(=O)[C@H](OC(C)=O)[C@@H](C)[C@H]1[C@@H](OC(C)=O)C[C@@]2(C)C3CCC4[C@H](C)C(=O)C=C[C@@]45C[C@@]35CC[C@]12C)[C@@H](C)COC(=O)CCl (stereo partly drawn) [Compound 49, 26-chloro-acetate-neoboutomellerone Derivative]	44%	15%	19%				
C=C(C(=O)[C@H](OC(C)=O)[C@@H](C)[C@H]1[C@@H](OC(C)=O)C[C@@]2(C)[C@@H]3CC[C@H]4[C@H](C)/C(=N/NC(N)=O)C=C[C@@]45C[C@@]35CC[C@]12C)[C@@H](C)CO [Compound 35, 3-semicarbazone-neoboutomellerone]	99%	30%	1%				
C=C(C(=O)[C@H](OC(C)=O)[C@@H](C)[C@H]1[C@@H](OC(C)=O)C[C@@]2(C)C3CCC4[C@H](C)C(=O)C=C[C@@]45C[C@@]35CC[C@]12C)[C@@H](C)COC(=O)CN(C)C (stereo partly drawn) [Compound 62, Neoboutomellerone 26-N-dimethyl glycinate]	49%	7%	11%				
C=C(C(=O)[C@H](O)[C@@H](C)[C@H]1[C@@H](OC(C)=O)C[C@@]2(C)[C@@H]3CC[C@H]4[C@H](C)C(=O)C=C[C@@]45C[C@@]35CC[C@]12C)C(C)C [Compound 7, 22-deacetyl,26-dehydroxy-neoboutomellerone]	65%	21%	2%				
C=C(C(=O)[C@H](O)[C@@H](C)[C@H]1[C@@H](OC(C)=O)C[C@@]2(C)C3CCC4[C@H](C)C(=O)C=C[C@@]45C[C@@]35CC[C@]12C)[C@@H](C)COC(=O)CCC(=O)O (stereo partly drawn) [Compound 71, 26-succinate-22-deacetyl-neoboutomellerone]	11%	4%	62%	6%			
C=C(C(=O)[C@H](OC(=O)CCl)[C@@H](C)[C@H]1[C@@H](OC(C)=O)C[C@@]2(C)C3CCC4[C@H](C)C(=O)C=C[C@@]45C[C@@]35CC[C@]12C)[C@@H](C)COC(C)=O (stereo partly drawn) [Compound 61, 22-chloroacetyl-26-acetyl-neoboutomellerone]	21%	6%	64%	23%			
C=C(C(=O)[C@H](O)[C@@H](C)[C@H]1[C@@H](OC(C)=O)C[C@@]2(C)[C@@H]3CC[C@H]4[C@H](C)C(=O)CC[C@@]45C[C@@]35CC[C@]12C)[C@@H](C)CO [Compound 14, 1,2-dihydro-22-deacetyl-neoboutomellerone]	10%	77%	1%				
C=C(C(=O)C(OC(C)=O)C(C)[C@H]1[C@@H](OC(C)=O)C[C@@]2(C)[C@@H]3CC[C@H]4[C@H](C)C(=O)C=C[C@@]45C[C@@]35CC[C@]12C)C(C)CO (stereo partly drawn) [Compound 13, Diastereoisomer on the Side Chain of Neoboutomellerone]	71%	60%	2%				
C=C(C(=O)[C@H](O)[C@@H](C)[C@H]1[C@@H](OC(C)=O)C[C@@]2(C)C3CCC4[C@H](C)C(=O)C=C[C@@]45C[C@@]35CC[C@]12C)[C@@H](C)COC(=O)CN(C)C (stereo partly drawn) [Compound 65, 22-deacetyl-neoboutomellerone 26-N dimethyl glycinate hydrochloride]				1%	34%	4%	17%
C=C(C(=O)[C@H](O)[C@@H](C)[C@H]1[C@@H](OC(C)=O)C[C@@]2(C)C3CCC4[C@H](C)C(=O)C=C[C@@]45C[C@@]35CC[C@]12C)[C@@H](C)COC(=O)CNC(=O)OC(C)(C)C (stereo partly drawn) [Compound 58, 22-deacetyl-neoboutomellerone 26-N-Boc-glycinate]	46%	10%	8%				
C=C(C(=O)[C@H](OC(C)=O)[C@@H](C)[C@H]1[C@@H](OC(C)=O)C[C@@]2(C)[C@@H]3C[C@@H](O)[C@H]4[C@H](C)C(=O)C=C[C@@]45C[C@@]35CC[C@]12C)[C@@H](C)CO [Compound 6, 6-hydroxy-neoboutomellerone]	31%		5%				
C=C(C(=O)[C@H](OC(C)=O)[C@@H](C)[C@H]1[C@@H](OC(C)=O)C[C@@]2(C)[C@@H]3CC[C@H]4[C@H](C)/C(=N/OCc5ccccc5)C=C[C@@]45C[C@@]35CC[C@]12C)[C@@H](C)CO [Compound 36, 3-anti-O-benzyloxime-neoboutomellerone]	12%	6%	1%				
C=C(C(=O)[C@H](OC(C)=O)[C@@H](C)[C@H]1[C@@H](OC(C)=O)C[C@@]2(C)C3CCC4C(C)C(=O)C=CC45CC35CC[C@]12C)[C@@H](C)CO (stereo partly drawn) [Compound 4, Diastereoisomer of Ring A of Neoboutomellerone]	84%	24%	2%				
C=C(C(=O)[C@H](OC(C)=O)[C@@H](C)[C@H]1[C@@H](OC(C)=O)C[C@@]2(C)[C@@H]3CC[C@H]4[C@H](C)C(=O)C=C[C@@]45C[C@@]35CC[C@]12C)[C@@H](C)COC(=O)Nc1ccc(N(C)C)cc1 [Compound 25, 26-N-(4-N,N-dimethylaniline)carbamate-neoboutomellerone]	51%	60%	49%	19%			
C=C(C(=O)[C@H](OC(C)=O)[C@@H](C)[C@H]1[C@@H](OC(C)=O)C[C@@]2(C)[C@@H]3CC[C@H]4[C@H](C)C(=O)CC[C@@]45C[C@@]35CC[C@]12C)[C@@H](C)CO [Compound 11, 1,2-dihydro-neoboutomellerone]	45%	48%	1%				

— US8785424B2, “ngCycloartanone derivatives with anticancer activity” (Pierre Fabre Medicament, priority 2009, dated 2014)
